We go through 34 sequences from the supplement of paper PMC11208160.
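Note: IS621 bridge recombinase in Escherichia coli cells against a fixed T5 target plasmid.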

This series in a line: recombinant UMI read abundance after kanamycin selection (control-corrected) (log10(CPM+1)); higher = more efficient recombination; extreme values may be limits of the assay; sequences stand for … in AGTGCAGAGAAAATCGGCCAGTTTTCTCTGCCTGCAGTCCGCATGCCGTGGGACCCCTTGGGTTCTAACCTGTTGCCTAGATTTATGCAGCGGACTGCCTTTCTCCCAAAGTGATAAACCGG…AGGTTGGTTTCACT; site = the 11-nt donor. In short, it runs like this:
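In Escherichia coli, a pool of donor and donor-binding-loop pairs, each with a 12-nt UMI, was tested for the IS621 bridge recombinase. Plating was on IPTG (0.07 mM) plus kanamycin, or without selection, in two replicates. Recombinant UMIs were amplified by PCR across the donor–target junction and sequenced, and counts were reported as log10(CPM+1) after averaging and control-derived scaling.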
With “TATTTCGCATGGACCGGTTTTCCCGGTAATCCGTATTTGTG (site TATTTAGCTCA)”, the “recombinant UMI read abundance (log10)” value was found to be 0.00938.
For “TATTTCGCATGGACCGGTTTTCCCGGTAATCCGTATTTGTG (site TATTTCGCTCA)” the value was 0.00881; for “TATTTCGCATGGACCGGTTTTCCCGGTAATCCGTATTTGTG (site TATTTGGCTCA)”, 0; for “TATTTCGCATGGACCGGTTTTCCCGGTAATCCGTATTTGTG (site TATTTTGCTCA)”, 0.00403.
As to “TATTTGCCATGGACCGGTTTTCCCGGTAATCCGTATTTGTG (site TATTTGACTCA)”, the “recombinant UMI read abundance (log10)” value was determined as 0.0205.
With “TATTTGCCATGGACCGGTTTTCCCGGTAATCCGTATTTGTG (site TATTTGCCTCA)”, the “recombinant UMI read abundance (log10)” value was 0.0197.
On to “TATTTGCCATGGACCGGTTTTCCCGGTAATCCGTATTTGTG (site TATTTGGCTCA)”, for which the “recombinant UMI read abundance (log10)” value is 0.00691.
For the sequence “TATTTGCCATGGACCGGTTTTCCCGGTAATCCGTATTTGTG (site TATTTGTCTCA)”, the “recombinant UMI read abundance (log10)” value was 0.0226.
Turning to “TATTTGGCATGGACCGGTTTTCCCGGTAATCCGTATTTGAG (site TATTTGGCTCA)”, the “recombinant UMI read abundance (log10)” value stood at 0.0138.
As to “TATTTGGCATGGACCGGTTTTCCCGGTAATCCGTATTTGAG (site TATTTGGCTCC)”, the “recombinant UMI read abundance (log10)” value worked out at 0.00558.
With “TATTTGGCATGGACCGGTTTTCCCGGTAATCCGTATTTGAG (site TATTTGGCTCG)”, the “recombinant UMI read abundance (log10)” value was found to be 0.012.
On to “TATTTGGCATGGACCGGTTTTCCCGGTAATCCGTATTTGAG (site TATTTGGCTCT)”, for which the “recombinant UMI read abundance (log10)” value amounted to 0.00868.
For “TATTTGGCATGGACCGGTTTTCCCGGTAATCCGTATTTGTA (site TATTTGGCTAA)” the value was 0.00533; for “TATTTGGCATGGACCGGTTTTCCCGGTAATCCGTATTTGTA (site TATTTGGCTCA)”, 0.0148; for “TATTTGGCATGGACCGGTTTTCCCGGTAATCCGTATTTGTA (site TATTTGGCTGA)”, 0.
Take “TATTTGGCATGGACCGGTTTTCCCGGTAATCCGTATTTGTA (site TATTTGGCTTA)”: the “recombinant UMI read abundance (log10)” value is 0.00725.
For the sequence “TATTTGGCATGGACCGGTTTTCCCGGTAATCCGTATTTGTT (site TATTTGGCTAA)”, the “recombinant UMI read abundance (log10)” value worked out at 0.17.
In the case of “TATTTGGCATGGACCGGTTTTCCCGGTAATCCGTATTTGTT (site TATTTGGCTCA)”, the “recombinant UMI read abundance (log10)” value worked out at 0.0085.
As for “TATTTGGCATGGACCGGTTTTCCCGGTAATCCGTATTTGTT (site TATTTGGCTGA)”, the “recombinant UMI read abundance (log10)” value was 0.
For “TATTTGGCATGGACCGGTTTTCCCGGTAATCCGTATTTGTT (site TATTTGGCTTA)”, the “recombinant UMI read abundance (log10)” value is 0.
Consider “TCAAATGCATGGACCGGTTTTCCCGGTAATCCGTATTTGCC (site TCAAATGCTGG)”, for which the “recombinant UMI read abundance (log10)” value worked out at 0.
As for “TCAAGGACATGGACCGGTTTTCCCGGTAATCCGTATTTGCA (site TCAAGGACTTG)”, the “recombinant UMI read abundance (log10)” value turned out to be 1.86.
In the case of “TCAAGGCCATGGACCGGTTTTCCCGGTAATCCGTATTTGGT (site TCAAGGCCTAC)”, the “recombinant UMI read abundance (log10)” value turned out to be 0.00348.
With “TCACCGACATGGACCGGTTTTCCCGGTAATCCGTATTTGGA (site TCACCGACTTC)”, the “recombinant UMI read abundance (log10)” value was 0.0438.
“TCACGCCCATGGACCGGTTTTCCCGGTAATCCGTATTTGCT (site TCACGCCCTAG)”: the “recombinant UMI read abundance (log10)” value is 2.1.
In the case of “TCAGAGACATGGACCGGTTTTCCCGGTAATCCGTATTTGTG (site TCAGAGACTCA)”, the “recombinant UMI read abundance (log10)” value came to 1.03.
As for “TCAGAGACATGGACCGGTTTTCCCGGTAATCCGTATTTGTG (site TCAGAGACTCC)”, the “recombinant UMI read abundance (log10)” value is 0.353.
As for “TCAGAGACATGGACCGGTTTTCCCGGTAATCCGTATTTGTG (site TCAGAGACTCG)”, the “recombinant UMI read abundance (log10)” value came to 1.44.
For the sequence “TCAGAGACATGGACCGGTTTTCCCGGTAATCCGTATTTGTG (site TCAGAGACTCT)”, the “recombinant UMI read abundance (log10)” value amounted to 0.205.
For “TCAGAGCCATGGACCGGTTTTCCCGGTAATCCGTATTTGCG (site TCAGAGACTCG)” the value was 0.00993; for “TCAGAGCCATGGACCGGTTTTCCCGGTAATCCGTATTTGCG (site TCAGAGCCTCG)”, 0.295.
With “TCAGAGCCATGGACCGGTTTTCCCGGTAATCCGTATTTGCG (site TCAGAGGCTCG)”, the “recombinant UMI read abundance (log10)” value turned out to be 0.00861.
Take “TCAGAGCCATGGACCGGTTTTCCCGGTAATCCGTATTTGCG (site TCAGAGTCTCG)”: the “recombinant UMI read abundance (log10)” value came out at 2.36.
With “TCAGAGTCATGGACCGGTTTTCCCGGTAATCCGTATTTGCG (site TCAGAGACTCG)”, the “recombinant UMI read abundance (log10)” value amounted to 0.877.
